Data from the NIST ThermoML archive (doi:10.1021/je401080p).
± gives the expanded uncertainty stated by the source.

Experiments:
[1] = Boiling temperature at pressure P; details: 1.1 kPa, Liquid
[2] = Liquid, Rate of evaporation

Cc1c(O)cc2c(c1C)O[C@](C)(CCC[C@H](C)CCC[C@H](C)CCCC(C)C)CC2 [(R,R,R)-γ-tocopherol]
Boiling temperature at pressure P ([1]; DSC): 274.70 ± 4.7 °C

CCCCCCCC(=O)OCC(O)COC(=O)CCCCCCC [glycerol 1,3-dicaprylate]
vapor or sublimation pressure ([2]; 511.93 K): 1.1 ± 0.2 kPa | vapor or sublimation pressure ([2]; 517.23 K): 1.5 ± 0.2 kPa | vapor or sublimation pressure ([2]; 529.42 K): 2.5 ± 0.2 kPa | vapor or sublimation pressure ([2]; 533.36 K): 3.1 ± 0.3 kPa | vapor or sublimation pressure ([2]; 538.14 K): 3.6 ± 0.3 kPa | vapor or sublimation pressure ([2]; 541.18 K): 4.3 ± 0.4 kPa | vapor or sublimation pressure ([2]; 552.59 K): 6.8 ± 0.5 kPa | vapor or sublimation pressure ([2]; 560.35 K): 10.1 ± 0.9 kPa | vapor or sublimation pressure ([2]; 567.73 K): 13.2 ± 1.2 kPa

Cc1cc(O)c(C)c2c1O[C@](C)(CCC[C@H](C)CCC[C@H](C)CCCC(C)C)CC2 [(R,R,R)-β-tocopherol]
Boiling temperature at pressure P ([1]; DSC): 279.58 ± 2.9 °C

Cc1cc(O)cc2c1OC(C)(CCCC(C)CCCC(C)CCCC(C)C)CC2 (stereo not drawn) [ω-tocopherol]
Boiling temperature at pressure P ([1]; DSC): 279.5 ± 6.6 °C

CCCCCCCCCC(=O)OCC(O)COC(=O)CCCCCCCCC [2-hydroxypropane-1,3-diyl bis(decanoate)]
vapor or sublimation pressure ([2]; 535.66 K): 1 ± 0.1 kPa | vapor or sublimation pressure ([2]; 538.32 K): 1.1 ± 0.2 kPa | vapor or sublimation pressure ([2]; 544.06 K): 1.5 ± 0.2 kPa | vapor or sublimation pressure ([2]; 554.25 K): 2.5 ± 0.2 kPa | vapor or sublimation pressure ([2]; 558.74 K): 3.1 ± 0.3 kPa | vapor or sublimation pressure ([2]; 562.37 K): 3.6 ± 0.4 kPa | vapor or sublimation pressure ([2]; 565.39 K): 4.3 ± 0.5 kPa

CCCCCCCC(=O)OCC(O)CO (stereo not drawn) [2,3-dihydroxypropyl octanoate]
vapor or sublimation pressure ([2]; 462.66 K): 1.1 ± 0.1 kPa | vapor or sublimation pressure ([2]; 468.91 K): 1.5 ± 0.2 kPa | vapor or sublimation pressure ([2]; 479.02 K): 2.5 ± 0.2 kPa | vapor or sublimation pressure ([2]; 484.24 K): 3.1 ± 0.4 kPa | vapor or sublimation pressure ([2]; 485.63 K): 3.6 ± 0.3 kPa | vapor or sublimation pressure ([2]; 490.19 K): 4.3 ± 0.4 kPa | vapor or sublimation pressure ([2]; 498.91 K): 6.8 ± 0.6 kPa | vapor or sublimation pressure ([2]; 507.96 K): 10.1 ± 0.9 kPa | vapor or sublimation pressure ([2]; 514.64 K): 13.2 ± 1.2 kPa

CCCCCCCCCC(=O)OCC(O)CO (stereo not drawn) [2,3-dihydroxypropyl decanoate]
vapor or sublimation pressure ([2]; 478.69 K): 1.1 ± 0.2 kPa | vapor or sublimation pressure ([2]; 482.79 K): 1.5 ± 0.2 kPa | vapor or sublimation pressure ([2]; 491.77 K): 2.5 ± 0.3 kPa | vapor or sublimation pressure ([2]; 497.13 K): 3.1 ± 0.6 kPa | vapor or sublimation pressure ([2]; 498.31 K): 3.6 ± 0.4 kPa | vapor or sublimation pressure ([2]; 501.31 K): 4.3 ± 0.4 kPa | vapor or sublimation pressure ([2]; 511.21 K): 6.8 ± 0.7 kPa | vapor or sublimation pressure ([2]; 519.1 K): 10.1 ± 1 kPa | vapor or sublimation pressure ([2]; 524.41 K): 13.2 ± 1.2 kPa

Cc1c(C)c2c(c(C)c1O)CC[C@@](C)(CCC[C@H](C)CCC[C@H](C)CCCC(C)C)O2 [(+)-α-tocopherol]
Boiling temperature at pressure P ([1]; Rate of evaporation): 276.11 ± 8.4 °C
